According to patent publication US6967196B1, “Sulfonamide compounds and uses thereof” (Bristol-Myers Squibb Company, priority 1999, dated 2005):
Where a name gives a salt, the structure may show the parent alone. Read-outs that look alike come from different tables or passages of the source.

Test system: amyloid β production in transfected H4 (human neuroglioma) cells stably expressing APP constructs
Experiment: In vitro cell-based assay of inhibitors of amyloid β production (ELISA)
Details: transfected H4 cells stably expressing APP, approximately 16 hours incubation, amyloid β in medium by ELISA, read-out: ACTIVITY (IC50, inhibition of amyloid β production)
Summary of the method: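 Test agents are screened at 10-100 μM for about 16 hours on cells stably expressing wild-type or variant APP. Secreted Aβ is measured by ELISA and compared with control-treated cells.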

Row | Structure (SMILES) | IC50 (Homo sapiens, 16 h) | also measured
1 | Cc1cccc(N(Cc2ccccc2OCCCN2CCCCC2)S(=O)(=O)c2ccc(Cl)cc2)c1 [Example 919, 4-chloro-N-(3-methylphenyl)-N-{2-[3-(1-piperidinyl)propoxy]benzyl}benzenesulfonamide hydrochloride] | > 500 nM | –
2 | O=C(c1ccc2c(c1)OCO2)N1CCCCC1CCOc1ccccc1CN(c1cc(F)ccc1F)S(=O)(=O)c1ccc(Cl)cc1 (stereo not drawn) [Example 921, N-(2-{2-[1-(1,3-benzodioxol-5-ylcarbonyl)-2-piperidinyl]ethoxy}benzyl)-4-chloro-N-(2,5-difluorophenyl)benzenesulfonamide] | > 500 nM | –
3 | O=S(=O)(c1ccc(Cl)cc1)N(Cc1ccccc1OCCCN1CCC(CO)CC1)c1ccccc1 [Example 922, 4-chloro-N-(2-{3-[4-(hydroxymethyl)-1-piperidinyl]propoxy}benzyl)-N-phenylbenzenesulfonamide hydrochloride] | > 500 nM | –
4 | O=C(/C=C/c1ccccc1CN(c1ccccc1)S(=O)(=O)c1ccc(Cl)cc1)N1CCCC1 [Example 923] | – | IC50: > 500 nM
5 | CSc1ccccc1N(Cc1ccccc1OCCCN1CCCCC1)S(=O)(=O)c1ccc(Cl)cc1 [Example 924, 4-chloro-N-[2-(methylsulfanyl)phenyl]-N-{2-[3-(1-piperidinyl)propoxy]benzyl}benzenesulfonamide hydrochloride] | > 500 nM | –
6 | CC1CC(C)CN(CCCOc2ccccc2CN(c2ccccc2)S(=O)(=O)c2ccc(Cl)cc2)C1 (stereo not drawn) [Example 926, 4-chloro-N-{2-[3-(3,5-dimethyl-1-piperidinyl)propoxy]benzyl}-N-phenylbenzenesulfonamide hydrochloride] | > 500 nM | –
7 | CC(C)CC(C)C(=O)N(C)CCOc1ccccc1C(C)N(c1cc(F)ccc1F)S(=O)(=O)c1ccc(Cl)cc1 (stereo not drawn) [Example 930, N-{2-[2-(1-{[(4-chlorophenyl)sulfonyl]-2,5-difluoroanilino}ethyl)phenoxy]ethyl}-N,2,4-trimethylpentamide] | – | IC50: > 500 nM
8 | O=S(=O)(c1ccc(Cl)cc1)N(Cc1ccccc1OCCC1CCCCN1Cc1cccc(F)c1F)c1cc(F)ccc1F (stereo not drawn) [Example 933, 4-chloro-N-(2-{2-[1-(2,3-difluorobenzyl)-2-piperidinyl]ethoxy}benzyl)-N-(2,5-difluorophenyl)benzenesulfonamide] | > 500 nM | –
9 | C[C@@H](Oc1ccc(Cl)cc1N(C)S(=O)(=O)c1ccc(Cl)cc1)c1ccc(F)cc1CCCC(=O)O [Example 935, 4-[2-((1R)-1-{4-chloro-2-[[(4-chlorophenyl)sulfonyl](methyl)amino]phenoxy}ethyl)-5-fluorophenyl]butanoic acid] | > 500 nM | –
10 | CCSCCCc1cc(F)ccc1[C@@H](C)N(c1cc(F)ccc1F)S(=O)(=O)c1ccc(SCC)cc1 [Example 936, N-(2,5-difluorophenyl)-4-(ethylsulfanyl)-N-((1R)-1-{2-[3-(ethylsulfanyl)propyl]-4-fluorophenyl}ethyl)benzenesulfonamide] | > 500 nM | –
11 | C[C@H](c1ccccc1CN1CCCCC1)N(c1cc(F)ccc1F)S(=O)(=O)c1ccc(Cl)cc1 [Example 939, 4-chloro-N-(2,5-difluorophenyl)-N-{(1R)-1-[2-(1-piperidinylmethyl)phenyl]ethyl}benzenesulfonamide hydrochloride] | – | IC50: > 500 nM
12 | CN1C2CCC1[C@@H](COc1ccccc1CN(c1ccccc1)S(=O)(=O)c1ccc(Cl)cc1)C2 (stereo partly drawn) [Example 941, 4-chloro-N-(2-{[(2S)-7-methyl-7-azabicyclo[2.2.1]hept-2-yl]methoxy}benzyl)-N-phenylbenzenesulfonamide hydrochloride] | – | IC50 (Homo sapiens): > 500 nM
13 | O=S1(=O)c2ccc(Cl)cc2-c2ccccc2N1Cc1ccccc1OCCCN1CCCCC1 [Example 948, 2-chloro-5-{2-[3-(1-piperidinyl)propoxy]benzyl}-6H-dibenzo]c,e][1,2]thiazine 5,5-dioxide hydrochloride] | – | IC50: > 500 nM
14 | C=C(C)CN(Cc1ccccc1OCCCN1CCCCC1)S(=O)(=O)c1ccc(Cl)cc1 [Example 955, 4-chloro-N-(2-methyl-2-propenyl)-N-{2-[3-(1-piperidinyl)propoxy]benzyl}benzenesulfonamide hydrochoride] | – | IC50: > 500 nM
15 | O=S(=O)(c1ccc(Cl)cc1)N(CCc1cccc(OCCCN2CCCCC2)c1)c1ccccc1 [Example 956, 4-chloro-N-phenyl-N-(2-{3-[3-(1-piperidinyl)propoxy]phenyl}ethyl)benzeneslfonamide hydrochloride] | – | IC50: > 500 nM
16 | Cc1ccc(OCCCN2CCCCC2)c(CN(c2cc(F)ccc2F)S(=O)(=O)c2ccc(Cl)cc2)c1 [Example 957, 4-chloro-N-(2,5-difluorophenyl)-N-{5-methyl-2-[3-(1-piperidinyl)propoxy]benzyl}benzenesulfonamide hydrochloride] | > 500 nM | –
17 | CN(CCCOc1ccccc1CN(c1cc(F)ccc1F)S(=O)(=O)c1ccc(Cl)cc1)C(=O)c1cc([N+](=O)[O-])cc([N+](=O)[O-])c1 [Example 958, N-{3-[2-({[(4-chlorophenyl)sulfonyl]-2,5-difluoroanilino}methyl)phenoxy]propyl}-N-methyl-3,5-dinitrobenzamide] | – | IC50: > 500 nM
18 | CN1CCCC1CCOc1ccccc1CN(c1ccccc1)S(=O)(=O)c1ccc(Cl)cc1 (stereo not drawn) [Example 962, 4-chloro-N-{2-[2-(1-methyl-2-pyrrolidinyl)ethoxy]benzyl}-N-phenylbenzenesulfonamide hydrochloride] | > 500 nM | –
19 | O=S(=O)(c1ccc(Cl)cc1)N(Cc1cc(Cl)ccc1OCCCN1CCCCC1)c1ccccc1 [Example 964, 4-chloro-N-{5-chloro-2-[3-(1-piperidinyl)propoxy]benzyl}-N-phenylbenzenesulfonamide hydrochloride] | > 500 nM | –
20 | CC1(O)CCN(CCCOc2ccccc2CN(c2ccccc2)S(=O)(=O)c2ccc(Cl)cc2)CC1 [Example 965, 4-chloro-N-{2-[3-(4-hydroxy-4-methyl-1-piperidinyl)propoxy]benzyl}-N-phenylbenzenesulfonamide hydrochloride] | > 500 nM | –
21 | O=C1CCN(CCCOc2ccccc2CN(c2ccccc2)S(=O)(=O)c2ccc(Cl)cc2)CC1 [Example 968, 4-chloro-N-{2-[3-(4-oxo-1-piperidinyl)propoxy]benzyl}-N-phenylbenzenesulfonamide hydrochloride] | > 500 nM | –
22 | O=S(=O)(c1ccc(Cl)cc1)N(Cc1ccccc1OCCCN1CCCCC1)[C@H]1CC2CCC1C2 (stereo partly drawn) [Example 969, N-{(2S)-bicyclo[2.2.1]hept-2-yl]-4-chloro-N-{2-[3-(1-piperidinyl)propoxy]benzyl}benzenesulfonamide hydrochloride] | – | IC50: > 500 nM

More lines, main results first:

Row | IC50 (Homo sapiens, 16 h) | Structure (SMILES) | also measured
23 | > 500 nM | O=S(=O)(c1ccc(Cl)cc1)N(Cc1ccccc1OCCCN1CCSCC1)c1ccccc1 [Example 937, 4-chloro-N-phenyl-N-{2-[3-(4-thiomorpholinyl)propoxy]benzyl}benzenesulfonamide hydrochloride] | –
24 | > 500 nM | COc1cc(C(=O)N2CCCCC2CCOc2ccccc2CN(c2cc(F)ccc2F)S(=O)(=O)c2ccc(Cl)cc2)cc(OC)c1OC (stereo not drawn) [Example 938, 4-chloro-N-(2,5-difluorophenyl)-N-(2-{2-[1-(3,4,5-trimethoxybenzoyl)-2-piperidinyl]ethoxy}benzyl)benzenesulfonamide] | –
25 | > 500 nM | O=C(c1ccccc1Br)N1CCCCC1CCOc1ccccc1CN(c1cc(F)ccc1F)S(=O)(=O)c1ccc(Cl)cc1 (stereo not drawn) [Example 942, N-(2-{2-[1-(2-bromobenzoyl)-2-piperidinyl]ethoxy}benzyl)-4-chloro-N-(2,5-difluorophenyl)benzenesulfonamide] | –
26 | > 500 nM | O=S(=O)(c1ccc(Cl)cc1)N(Cc1ccccc1OCCCN1CCNCC1)c1ccccc1 [Example 944, 4-chloro-N-phenyl-N-{2-[3-(1-piperazinyl)propoxy]benzyl}benzenesulfonamide dihydrochloride] | –
27 | > 500 nM | O=S(=O)(c1ccc(Cl)cc1)N(Cc1cccnc1)Cc1ccccc1OCCCN1CCCCC1 [Example 945, 4-chloro-N-{2-[3-(1-piperidinyl)propoxy]benzyl}-N-(3-pyridinylmethyl)benzenesulfonamide hydrochloride] | –
28 | > 500 nM | O=C(c1ccc(F)cc1)N1CCCCC1CCOc1ccccc1CN(c1cc(F)ccc1F)S(=O)(=O)c1ccc(Cl)cc1 (stereo not drawn) [Example 946, 4-chloro-N-(2,5-difluorophenyl)-N-(2-{2-[1-(4-fluorobenzoyl)-2-piperidinyl]ethoxy}benzyl)benzenesulfonamide] | –
29 | > 500 nM | CC(C)CCCN(Cc1ccccc1OCCCN1CCCCC1)S(=O)(=O)c1ccc(Cl)cc1 [Example 951, 4-chloro-N-(4-methylpentyl)-N-{2-[3-(1-piperidinyl)propoxy]benzyl}benzenesulfonamide hydrochloride] | –
30 | > 500 nM | CSc1cccc(N(Cc2ccccc2OCCCN2CCCCC2)S(=O)(=O)c2ccc(Cl)cc2)c1 [Example 952, 4-chloro-N-[3-(methylsulfanyl)phenyl]N-{2-[3-(1-piperidinyl)propoxy]benzyl}benzenesulfonamide hydrochloride] | –
31 | > 500 nM | O=S(=O)(c1ccc(Cl)cc1)N(Cc1ccccc1OCCCN1CCCCC1)[C@H]1CC2CCC1C2 (stereo partly drawn) [Example 954, N-[(2S)-bicyclo[2.2.1]hept-2-yl]-4-chloro-N-{2-[3-(1-piperidinyl)propoxy]benzyl}benzenesulfonamide hydrochloride] | –
32 | > 500 nM | O=S(=O)(c1ccc(Cl)cc1)N(Cc1ccccc1OCCC1CCCN1)c1ccccc1 (stereo not drawn) [Example 963, 4-chloro-N-phenyl-N-{2-[2-(2-pyrrolidinyl)ethoxy]benzyl}benzenesulfonamide hydrochloride] | –
33 | > 500 nM | O=S(=O)(c1ccc(Cl)cc1)N(Cc1ccncc1)Cc1ccccc1OCCCN1CCCCC1 [Example 967, 4-chloro-N-{2-[3-(1-piperidinyl)propoxy]benzyl}-N-(4-pyridinylmethyl)benzenesulfonamide hydrochloride] | –
